Data taken from patent US5096923A, “Novel squalene synthetase inhibitors” (Merck & Co., Inc., priority 1990, dated 1992).
≈ marks a conversion by molar mass, not a printed value.

Legend:
A. flavus MF383 = test: Antifungal microtiter inhibitor dilution assay (filamentous fungi), A. flavus; format: cell-based; details: Aspergillus flavus, 42 hours, 28° C., read-out: Minimum Inhibitory Concentration
Method: (§1) The compounds are particularly active towards filamentous fungi and yeasts including Candida albicans and Crypt neoformans. The sensitivity of filamentous fungi and yeast was determined using inhibitor dilution assays in microtiter format. The compounds were dissolved in DMSO at 2 mg/ml and serially diluted in 0.1M phosphate buffer, pH 7.0 in the microtiter dish from 100 to 0.006 μg/ml. A standardized spore suspension for testing the filamentous fungi was prepared by inoculating Antibiotic Medium #3 containing 1.5% agar with spores such that 1.5×10^3 colony forming units were added per well. The microtiter wells were filled with 50 μl of buffer containing compound and 50 μl of inoculated medium. The sensitivity of yeasts was determined by inoculating yeast nitrogen base containing 1% dextrose (YNB/G) with aliquots of an overnight yeast culture grown in yeast morphology (YM) media at 35° C. and diluting in YNB/G to yield a final concentration of 1.5-7.5×10^3 colony forming units/well. One hundred fifty μl of inoculated media was added per well. To test the sensitivity of yeast, compound was solubilized in 10 percent aqueous DMSO at 2.56 mg/ml. The compound was diluted serially in YNB/G from 128 to 0.06 μg/ml. The wells were filled with 150 μl of drug containing media. […]

A. fumigatus MF4839 = test: Antifungal microtiter inhibitor dilution assay (filamentous fungi), A. fumigatus; format: cell-based; details: Aspergillus fumigatus, 42 hours, 28° C., read-out: Minimum Inhibitory Concentration
Method: as §1

Coch. miyabeanus MF4626 = test: Antifungal microtiter inhibitor dilution assay (filamentous fungi), Coch. miyabeanus; format: cell-based; details: Bipolaris oryzae, MF4626, 42 h, read-out: Minimum Inhibitory Concentration
Method: as §1

A. niger MF442 = test: Antifungal microtiter inhibitor dilution assay (filamentous fungi), A. niger; format: cell-based; details: Aspergillus niger, 42 hours, 28° C., read-out: Minimum Inhibitory Concentration
Method: as §1

Pen. italicum MF2819 = test: Antifungal microtiter inhibitor dilution assay (filamentous fungi), Pen. italicum; format: cell-based; details: Penicillium italicum, 42 hours, 28° C., read-out: Minimum Inhibitory Concentration
Method: as §1

Squalene Synthetase = biological target: T1, Squalene Synthetase (Rattus norvegicus, UniProt Q02769); test: Squalene synthetase assay (rat liver microsomes, [4-14C]farnesyl-pyrophosphate); format: biochemical; details: 30° C., 20 minutes, read-out: Squalene Synthetase ID50
T1 construct: The livers from these rats were homogenized in 5 volumes (ml/g) of ice cold 50 mM HEPES; from tissue; host or cells: rat liver microsomes (male Charles River CD rats fed 0.1% lovastatin for 4 days)
T1 sequence (Q02769 1-416): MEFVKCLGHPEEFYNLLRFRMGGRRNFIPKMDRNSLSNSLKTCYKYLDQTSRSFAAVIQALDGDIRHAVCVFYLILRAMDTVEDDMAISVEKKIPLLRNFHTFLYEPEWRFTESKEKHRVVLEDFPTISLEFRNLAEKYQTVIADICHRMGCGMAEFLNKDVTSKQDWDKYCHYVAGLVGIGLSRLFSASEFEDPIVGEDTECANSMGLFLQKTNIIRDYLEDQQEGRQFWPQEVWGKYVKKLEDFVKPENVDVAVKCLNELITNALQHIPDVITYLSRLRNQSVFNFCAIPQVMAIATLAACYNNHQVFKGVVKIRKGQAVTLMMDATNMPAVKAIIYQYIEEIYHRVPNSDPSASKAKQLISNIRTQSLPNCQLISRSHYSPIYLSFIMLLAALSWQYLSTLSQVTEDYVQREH
Method: The intrinsic squalene synthetase inhibitory activity of representative compounds of this invention was measured by the standard in vitro protocol described below:
Male, Charles River CD rats (120 to 150 g) were fed a diet containing 0.1% lovastatin for 4 days. The livers from these rats were homogenized in 5 volumes (ml/g) of ice cold 50 mM HEPES (4-(2 -hydroxyethyl)-1-piperazine-ethanesulfonic acid), 5 mM EDTA(ethylenediaminetetraacetic acid) pH 7.5 with a Potter-Elvehjem type tissue grinder. The homogenate was centrifuged twice at 20,000×g for 15 minutes at 4° C., discarding the pellet each time. The supernatant was then centrifuged at 100,000×g for 1 hour at 4° C. The resulting microsomal pellet was resuspended in a volume of the above homogenizing buffer equal to one-fifth the volume of the original homogenate. This microsomal preparation has a protein concentration of about 7 mg/ml. The microsomal suspensions were stored in aliquots at -70° C. Squalene synthetase activity in these aliquots is stable for at least several months.
Prenyl transferase was purified to use in the enzymatic synthesis of radiolabelled farnesyl pyrophosphate. Prenyl transferase was assayed by the method of Rilling (Methods in Enzymology 110, 125-129 (1985)) and a unit of activity is defined as the amount of enzyme that will produce 1 μmole of farnesyl pyrophosphate per minute at 30° C. in the standard assay. […]

C. albicans MY1055 = test: Antifungal microtiter inhibitor dilution assay (yeast), C. albicans; format: cell-based; details: Candida albicans, 24 hours, 28° C., read-out: Minimum Inhibitory Concentration
Method: as §1

C. tropicalis MY1012 = test: Antifungal microtiter inhibitor dilution assay (yeast), C. tropicalis; format: cell-based; details: Candida tropicalis, 24 hours, 28° C., read-out: Minimum Inhibitory Concentration
Method: as §1

C. parapsilosis MY1010 = test: Antifungal microtiter inhibitor dilution assay (yeast), C. parapsilosis; format: cell-based; details: Lodderomyces parapsilosis, 24 hours, 28° C., read-out: Minimum Inhibitory Concentration
Method: as §1

Fus. oxysporum MF4014 = test: Antifungal microtiter inhibitor dilution assay (filamentous fungi), Fus. oxysporum; format: cell-based; details: Fusarium oxysporum, 42 hours, 28° C., read-out: Minimum Inhibitory Concentration
Method: as §1

Crypt. neoformans MY1051 = test: Antifungal microtiter inhibitor dilution assay (yeast), Crypt. neoformans; format: cell-based; details: Cryptococcus neoformans, 24 hours, 28° C., read-out: Minimum Inhibitory Concentration
Method: as §1

Q: With `C=C(CCC12OC(C(=O)OC)C(O)(C(=O)OC)C(C(=O)OC)(O1)C(OC(=O)C=CC(C)CC(C)CC)C2O)C(OC(C)=O)C(C)Cc1ccccc1` (centres unmarked) [Compound B] as the compound, how does the MIC (A. flavus MF383) read?
A: The MIC was 6.2 mg/L (≈ 8.46 µM).

Q: And the MIC (A. fumigatus MF4839)?
A: Its MIC is 6.2 mg/L (≈ 8.46 µM).

Q: What about the MIC (Coch. miyabeanus MF4626) of the same compound?
A: The MIC was 1.6 mg/L (≈ 2.18 µM).

Q: What about the MIC (A. niger MF442) of the same compound?
A: Its MIC is 25 mg/L (≈ 34.1 µM).

Q: What about the MIC (Pen. italicum MF2819) of the same compound?
A: Its MIC is 6.2 mg/L (≈ 8.46 µM).

Q: And the IC50 (Squalene Synthetase)?
A: Its IC50 is 5 µM.

Q: What about the MIC (C. albicans MY1055) of the same compound?
A: Its MIC is 8 mg/L (≈ 10.9 µM).

Q: What about the MIC (C. tropicalis MY1012) of the same compound?
A: Its MIC is 4 mg/L (≈ 5.46 µM).

Q: And the MIC (C. parapsilosis MY1010)?
A: Its MIC is 8 mg/L (≈ 10.9 µM).

Q: What about the MIC (Fus. oxysporum MF4014) of the same compound?
A: The MIC was greater than 100 mg/L.

Q: What about the MIC (Crypt. neoformans MY1051) of the same compound?
A: The MIC was 1 mg/L (≈ 1.36 µM).
